Target: T1, SIRT1 (Homo sapiens, UniProt Q96EB6)
T1 sequence (Q96EB6 1-747): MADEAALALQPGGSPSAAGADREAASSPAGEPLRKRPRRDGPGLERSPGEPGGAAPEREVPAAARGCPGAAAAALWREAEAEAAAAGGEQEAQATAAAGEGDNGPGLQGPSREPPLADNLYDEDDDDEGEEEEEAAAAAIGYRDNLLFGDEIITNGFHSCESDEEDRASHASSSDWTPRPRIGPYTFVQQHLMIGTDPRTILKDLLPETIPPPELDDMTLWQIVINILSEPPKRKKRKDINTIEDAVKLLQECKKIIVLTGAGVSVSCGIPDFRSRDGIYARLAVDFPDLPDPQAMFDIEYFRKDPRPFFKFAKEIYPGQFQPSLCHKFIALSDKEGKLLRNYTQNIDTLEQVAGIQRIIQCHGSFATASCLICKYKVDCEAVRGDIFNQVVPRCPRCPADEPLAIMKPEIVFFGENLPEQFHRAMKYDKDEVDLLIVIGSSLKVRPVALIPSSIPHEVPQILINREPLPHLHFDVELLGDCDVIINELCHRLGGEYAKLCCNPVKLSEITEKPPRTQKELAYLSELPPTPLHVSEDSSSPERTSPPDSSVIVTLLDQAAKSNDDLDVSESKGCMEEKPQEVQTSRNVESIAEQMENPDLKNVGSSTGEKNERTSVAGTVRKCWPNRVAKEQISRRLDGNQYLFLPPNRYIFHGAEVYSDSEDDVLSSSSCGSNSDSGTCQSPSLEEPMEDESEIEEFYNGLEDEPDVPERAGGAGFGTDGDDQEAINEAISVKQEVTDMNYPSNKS
Test: Mass spectrometry based SIRT1 deacetylation assay (activation)
Type: biochemical
Conditions: 10 nM SIRT1, 0.5 μM peptide substrate, 120 μM βNAD+, 25 min at 25° C.
Method in brief: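 Activation reported as EC1.5, the compound concentration producing 150% of DMSO-control deacetylation, plus maximum fold activation. Readout is mass-spectrometric ratio of deacetylated to acetylated p53-based peptide (0.5 μM) after 25 min, 25 °C, with 120 μM βNAD+ and 10 nM His-tagged human SIRT1, pH 8.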

% Fold Act. (percent maximum fold activation)	EC1.5 (concentration of test compound that results in 150% activation of SIRT1)	Compound
A (Fold activation >200%)	B (EC1.5 1-25 uM)	O=C(NC1CCNCC1)c1cccc2ccc(-c3cccc(C(F)(F)F)c3)nc12 [Compound 71]
A (Fold activation >200%)	A (EC1.5<1.0 uM)	O=C(Nc1nc(CN2CCOCC2)cs1)c1cccc2ccc(-c3cccnc3)nc12 [Compound 190]
A (Fold activation >200%)	A (EC1.5<1.0 uM)	O=C(Nc1cccc2ccc(-c3cccc(CN4CCNCC4)c3)nc12)c1cscn1 [Compound 121]
–	C (EC1.5>25 uM)	O=C(Nc1cccc2ccc(-c3ccc(F)c(C(F)(F)F)c3)nc12)c1cnccn1 [Compound 157]
–	C (EC1.5>25 uM)	O=S(=O)(Nc1nccs1)Nc1cccc2ccc(-c3cccc(OC(F)(F)F)c3)nc12 [Compound 113]
A (Fold activation >200%)	A (EC1.5<1.0 uM)	Cc1cc(C)nc(NC(=O)c2cccc3ccc(-c4cccc(C(F)(F)F)c4)nc23)c1 [Compound 53]
–	C (EC1.5>25 uM)	N#Cc1cccc(-c2ccc3cccc(NC(=O)c4cscn4)c3n2)c1 [Compound 80]
A (Fold activation >200%)	A (EC1.5<1.0 uM)	Cc1nnc(NC(=O)c2cccc3ccc(-c4cccc(N5CCOCC5)c4)nc23)s1 [Compound 252]
–	C (EC1.5>25 uM)	O=C(Nc1cccc2ccc(-c3cc(F)cc(C(F)(F)F)c3)nc12)c1ccccc1 [Compound 153]
A (Fold activation >200%)	A (EC1.5<1.0 uM)	O=C(Nc1ccc(OCC(O)CO)cc1)c1cccc2ccc(-c3cccc(OC(F)(F)F)c3)nc12 (centres unmarked) [Compound 150]
A (Fold activation >200%)	A (EC1.5<1.0 uM)	O=C(Nc1nccs1)c1cccc2ccc(-c3cccc(C(F)F)c3)nc12 [Compound 247]
A (Fold activation >200%)	A (EC1.5<1.0 uM)	O=C(Nc1cccc2ccc(-c3cccnc3)nc12)c1cscn1 [Compound 76]
–	C (EC1.5>25 uM)	c1cncc(CNc2cccc3ccc(-c4cccc(N5CCOCC5)c4)nc23)c1 [Compound 172]
–	C (EC1.5>25 uM)	Cc1cc(NC(=O)c2cccc3ccc(-c4cccnc4)nc23)sn1 [Compound 236]
–	C (EC1.5>25 uM)	O=C(Nc1cccnc1)c1cc(F)cc2ccc(-c3cccc(C(F)(F)F)c3)nc12 [Compound 63]
B (Fold Activation <200%)	B (EC1.5 1-25 uM)	O=C(NC1CCOCC1)c1cccc2ccc(-c3cccc(C(F)(F)F)c3)nc12 [Compound 39]

The remaining lines, values behind:

Compound	% Fold Act. (percent maximum fold activation)	EC1.5 (concentration of test compound that results in 150% activation of SIRT1)
O=C(Nc1nccs1)c1cccc2ccc(-c3cccc(OC(F)(F)F)c3)nc12 [Compound 14]	B (Fold Activation <200%)	A (EC1.5<1.0 uM)
O=C(Nc1cccnc1)c1cccc2ccc(-c3ccccc3C(F)(F)F)nc12 [Compound 86]	A (Fold activation >200%)	B (EC1.5 1-25 uM)
O=C(Nc1nccs1)c1cccc2ccc(-c3ccc(C(F)(F)F)cc3)nc12 [Compound 96]	–	C (EC1.5>25 uM)
FC(F)(F)c1cccc(-c2ccc3cccc(CNc4nccs4)c3n2)c1 [Compound 104]	–	C (EC1.5>25 uM)
O=C(Nc1ccccc1)c1cccc2ccc(-c3cccc(OC(F)(F)F)c3)nc12 [Compound 11]	B (Fold Activation <200%)	B (EC1.5 1-25 uM)
CN1CCOc2cc(-c3ccc4cccc(NC(=O)c5cscn5)c4n3)ccc21 [Compound 202]	A (Fold activation >200%)	A (EC1.5<1.0 uM)
CS(=O)(=O)c1ccccc1-c1ccc2cccc(NC(=O)c3cscn3)c2n1 [Compound 93]	A (Fold activation >200%)	A (EC1.5<1.0 uM)
O=C(Nc1ccncn1)c1cccc2ccc(-c3cccc(C(F)(F)F)c3)nc12 [Compound 41]	A (Fold activation >200%)	A (EC1.5<1.0 uM)
O=C(Nc1ccncn1)c1cccc2ccc(-c3ccnc(C(F)F)c3)nc12 [Compound 308]	A (Fold activation >200%)	A (EC1.5<1.0 uM)
O=C(Nc1cccc(N2CCOCC2)n1)c1cccc2ccc(-c3cccc(C(F)(F)F)c3)nc12 [Compound 319]	A (Fold activation >200%)	A (EC1.5<1.0 uM)
O=C(NCc1cccnc1)c1cccc2ccc(-c3cccc(OC4CCNCC4)c3)nc12 [Compound 95]	A (Fold activation >200%)	B (EC1.5 1-25 uM)
O=C(Nc1ccc(F)cn1)c1cccc2ccc(-c3cccnc3)nc12 [Compound 265]	–	C (EC1.5>25 uM)
Cc1noc(C)c1NC(=O)c1cccc2ccc(-c3cccc(C(F)(F)F)c3)nc12 [Compound 50]	–	C (EC1.5>25 uM)
O=C(Nc1ccccn1)c1cccc2cnc(-c3cccc(N4CCOCC4)c3)nc12 [Compound 315]	A (Fold activation >200%)	A (EC1.5<1.0 uM)
O=C(Nc1nccs1)Nc1cccc2ccc(-c3cccc(OC(F)(F)F)c3)nc12 [Compound 45]	B (Fold Activation <200%)	A (EC1.5<1.0 uM)
Fc1cc(-c2ccc3cccc(NCc4cccnc4)c3n2)cc(C(F)(F)F)c1 [Compound 168]	–	C (EC1.5>25 uM)
O=C(Nc1cccc2ccc(-c3cc(F)cc(C(F)(F)F)c3)nc12)c1cnccn1 [Compound 156]	–	C (EC1.5>25 uM)
O=C(Nc1cccc(OCC(O)CO)c1)c1cccc2ccc(-c3cccc(OC(F)(F)F)c3)nc12 (centres unmarked) [Compound 152]	A (Fold activation >200%)	A (EC1.5<1.0 uM)
c1cncc(CNc2cccc3ccc(-c4ccncc4)nc23)c1 [Compound 146]	–	C (EC1.5>25 uM)
O=C(Nc1cccnc1)c1cccc2cc(C(F)(F)F)c(-c3ccccc3)nc12 [Compound 193]	–	C (EC1.5>25 uM)
O=C(Nc1cccnc1)c1cccc2ccc(-c3ccc(C(F)(F)F)cc3)nc12 [Compound 98]	–	C (EC1.5>25 uM)
O=C(Nc1ccccn1)c1cccc2ncc(-c3cccc(C(F)(F)F)c3)nc12 [Compound 129]	B (Fold Activation <200%)	A (EC1.5<1.0 uM)
O=C(Nc1ncnc2ccc(-c3cccc(C(F)(F)F)c3)nc12)c1ccccn1 [Compound 310]	A (Fold activation >200%)	A (EC1.5<1.0 uM)
O=C(Nc1ccc(F)cn1)c1cccc2ccc(-c3cccc(N4CCOCC4)c3)nc12 [Compound 277]	A (Fold activation >200%)	A (EC1.5<1.0 uM)
O=C(Nc1cccc2ccc(-c3cccnc3)nc12)c1cccc(OCCN2CCOCC2)c1 [Compound 317]	A (Fold activation >200%)	B (EC1.5 1-25 uM)
O=S(=O)(Nc1cccnc1)Nc1cccc2ccc(-c3cccc(OC(F)(F)F)c3)nc12 [Compound 114]	–	C (EC1.5>25 uM)
Fc1ccc(-c2ccc3cccc(NCc4cccnc4)c3n2)cc1C(F)(F)F [Compound 166]	–	C (EC1.5>25 uM)

Source: patent publication US8685970B2, “Quinolines and related analogs as sirtuin modulators” (GlaxoSmithKline, LLC, priority 2008, dated 2014)
